Source: PubChem BioAssay AID1117356 (Cheminformatics & Chemogenomics Research Group (CCRG), …, 2015)
Active and inactive are the calls of the source. How the calls were made is not given here.

Biological target: Receptor-type tyrosine-protein kinase FLT3 (Homo sapiens) (UniProt P36888)
Assay: inhibitors of Homo sapiens fms-like tyrosine kinase 3, primary HTS, cell-free, LANCE Ultra TR-FRET, NPC library from NCATS (AID 1117356)
Conditions: recombinant FLT3, LANCE Ultra TR-FRET kinase assay, stronger effect = higher value

Receptor-type tyrosine-protein kinase FLT3 (Homo sapiens), sequence (P36888 whole entry, looked up): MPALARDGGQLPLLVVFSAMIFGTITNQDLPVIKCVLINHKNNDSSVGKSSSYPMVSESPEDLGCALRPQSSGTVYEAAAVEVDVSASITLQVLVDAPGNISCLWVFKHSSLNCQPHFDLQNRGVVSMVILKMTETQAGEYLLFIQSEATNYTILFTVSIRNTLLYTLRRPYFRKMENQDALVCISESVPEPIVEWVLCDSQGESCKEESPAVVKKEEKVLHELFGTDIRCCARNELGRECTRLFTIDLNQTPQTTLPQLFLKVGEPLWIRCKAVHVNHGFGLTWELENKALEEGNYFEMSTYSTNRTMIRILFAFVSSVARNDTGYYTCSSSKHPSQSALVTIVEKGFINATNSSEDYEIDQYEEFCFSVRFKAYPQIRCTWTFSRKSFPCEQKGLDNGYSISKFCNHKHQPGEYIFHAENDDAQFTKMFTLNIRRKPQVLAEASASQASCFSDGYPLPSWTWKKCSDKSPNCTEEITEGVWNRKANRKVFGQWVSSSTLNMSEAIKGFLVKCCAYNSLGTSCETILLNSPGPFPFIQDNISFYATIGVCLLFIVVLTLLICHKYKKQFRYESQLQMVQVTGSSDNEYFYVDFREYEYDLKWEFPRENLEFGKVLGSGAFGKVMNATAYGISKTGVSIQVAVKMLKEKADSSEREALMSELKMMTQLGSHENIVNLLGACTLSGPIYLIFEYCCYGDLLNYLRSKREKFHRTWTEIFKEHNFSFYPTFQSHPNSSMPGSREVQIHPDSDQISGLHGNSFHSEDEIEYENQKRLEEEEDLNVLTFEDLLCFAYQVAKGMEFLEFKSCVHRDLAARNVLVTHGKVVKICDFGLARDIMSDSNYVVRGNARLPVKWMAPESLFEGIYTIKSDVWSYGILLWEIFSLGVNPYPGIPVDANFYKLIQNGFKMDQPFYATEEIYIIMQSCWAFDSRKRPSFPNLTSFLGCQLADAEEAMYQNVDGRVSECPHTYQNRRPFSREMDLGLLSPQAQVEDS

Row | SMILES | inhibition (at 20 µM) | inhibition (inhibition, at 0.2 µM) | inhibition (inhibition, at 2 µM)
1 | O=C(Nc1ccc([N+](=O)[O-])cc1Cl)c1cc(Cl)ccc1O | 19.6% (inactive) | -17.5% | 12.3%
2 | CCCCCCNC(=O)n1cc(F)c(=O)[nH]c1=O | -1.76% (inactive) | -6.64% | -7.12%
3 | S=c1nc[nH]c2nc[nH]c12 | -15% (inactive) | -36.3% | -4.89%
4 | CCCCCCCCCCCCCCCCCCNC(=O)OC1CCN(C(=O)OC[C@H](COC(=O)N(Cc2cccc[n+]2CC)C(=O)c2ccccc2OC)OC)CC1 |  | -4.54% | -22.2%
5 | CC(=O)[C@]1(O)Cc2c(O)c3c(c(O)c2[C@@H](O[C@H]2C[C@H](N)[C@H](O)[C@H](C)O2)C1)C(=O)c1ccccc1C3=O |  | -8.58% | -59.1%
6 | COc1cc(NCc2ccc3nc(N)nc(N)c3c2C)cc(OC)c1OC | -229% (inactive) | -7.18% | 0.42%
7 | CC[C@]1(O)C[C@H]2CN(CCc3c([nH]c4ccccc34)[C@@](C(=O)OC)(c3cc4c(cc3OC)N(C=O)[C@H]3[C@@](O)(C(=O)OC)[C@H](OC(C)=O)[C@]5(CC)C=CCN6CC[C@]43[C@@H]65)C2)C1 | -0.99% (inactive) | -6.96% | -3.21%
8 | CC(C)(C)C1CCC(CC2=C(O)c3ccccc3C(=O)C2=O)CC1 (stereo unspecified) | 37.2% (inactive) | -5.99% | 21.2%
9 | O=C1c2c(O)ccc(O)c2C(=O)c2c(NCCNCCO)ccc(NCCNCCO)c21 | -19.7% (inactive) | -9.01% | 36.3%
10 | COc1cc2c(c(OC)c1OC)-c1ccc(OC)c(=O)cc1[C@@H](NC(C)=O)CC2 | -1.26% (inactive) | -14.9% | 5.22%
11 | COC(=O)[C@H]1[C@H]2C[C@@H]3c4[nH]c5cc(OC)ccc5c4CCN3C[C@H]2C[C@@H](OC(=O)/C=C/c2ccc(O)c(OC)c2)[C@@H]1OC | -11.1% (inactive) | -33.5% | -4.17%
12 | NC(=NCCCCCCN=C(N)/N=C(\N)Nc1ccc(Cl)cc1)/N=C(\N)Nc1ccc(Cl)cc1 | 10.1% (inactive) | -2.84% | 22.6%
13 | Cc1ccc([N+](=O)[O-])[c]2c1[O][Hg]2 | 61.9% | -27.4% | 26.6%
14 | COc1cccc2c1C(=O)c1c(O)c3c(c(O)c1C2=O)C[C@@](O)(C(C)=O)C[C@@H]3O[C@H]1C[C@H](N)[C@H](O)[C@H](C)O1 | -2.27% (inactive) | 0.52% | -18.3%
15 | CSc1ccc2c(c1)C(N1CCN(C)CC1)Cc1ccccc1S2 (stereo unspecified) | 44.8% (inactive) | -5.03% | 16.4%
16 | Cc1cc2c(C(C)C)c(O)c(O)c(C=O)c2c(O)c1-c1c(C)cc2c(C(C)C)c(O)c(O)c(C=O)c2c1O | 8.28% (inactive) | -0.04% | -1.93%
17 | Cc1nc2ccc(CN(C)c3ccc(C(=O)N[C@@H](CCC(=O)O)C(=O)O)s3)cc2c(=O)[nH]1 | 1.97% (inactive) | -15.7% | 6.66%
18 | Cc1cc(C2CCCCC2)n(O)c(=O)c1 | -4.08% (inactive) | -25.7% | -3.23%
19 | CC(=O)Oc1ccc(C2(c3ccc(OC(C)=O)cc3)Oc3ccccc3NC2=O)cc1 | 17.5% (inactive) | -18.2% | 14.5%
20 | CCN(CC)CCNc1ccc(CO)c2sc3ccccc3c(=O)c12 | 27.1% (inactive) | -16.8% | 6.21%

Row | SMILES | inhibition (at 20 µM) | inhibition (inhibition, at 0.2 µM) | inhibition (inhibition, at 2 µM)
21 | CCCCc1oc2ccccc2c1C(=O)c1cc(I)c(OCCN(CC)CC)c(I)c1 | 20.7% (inactive) | -4.16% | 11.9%
22 | O=C(O)c1ccc(-n2nc(-c3ccccc3O)nc2-c2ccccc2O)cc1 | 31.5% (inactive) | -9.59% | 7.62%
23 | O=c1c(-c2ccccc2)c1-c1ccccc1 | 41.7% (inactive) | -22% | 10.9%
24 | COC(=O)c1nc(Cl)c(Cl)nc1N | 60.2% | 16.3% | 51%
25 | Cc1ccc2nc(N)[nH]c(=O)c2c1Sc1ccncc1 | 27.5% (inactive) | -4.81% | 25.2%
26 | CNC(=O)c1cc(Oc2ccc(NC(=O)Nc3ccc(Cl)c(C(F)(F)F)c3)cc2)ccn1 | 99.7% | 60.7% | 97.5%
27 | O=C(CCl)c1ccc(Cl)cc1Cl | -7.4% (inactive) | -30.4% | 7.53%
28 | CC[C@@H]([C@H](C)O)n1ncn(-c2ccc(N3CCN(c4ccc(OC[C@@H]5CO[C@@](Cn6cncn6)(c6ccc(F)cc6F)C5)cc4)CC3)cc2)c1=O | -23.2% (inactive) | -42.6% | -10.5%
29 | CCCOc1ccc2nc(NC(=O)OC)[nH]c2c1 | 1.68% (inactive) | -19.3% | 17%
30 | COc1ccc(-c2ccc3cc(C(=O)O)ccc3c2)cc1C12CC3CC(CC(C3)C1)C2 | 29.6% (inactive) | -12.3% | -71.5%
31 | COc1cc([C@@H]2c3cc4c(cc3[C@H](O)[C@H]3COC(=O)[C@H]23)OCO4)cc(OC)c1OC | 1.36% (inactive) | -11.9% | 4.83%
32 | CC(C)C[C@H](NC(=O)[C@H](CCc1ccccc1)NC(=O)CN1CCOCC1)C(=O)N[C@@H](Cc1ccccc1)C(=O)N[C@@H](CC(C)C)C(=O)[C@@]1(C)CO1 | 8.47% (inactive) | -8.96% | 15%
33 | CCc1nc(N)nc(N)c1-c1ccc(Cl)cc1 | -9.63% (inactive) | -33.1% | 1%
34 | COc1ccc2cc1Oc1ccc(cc1)C[C@H]1c3c(cc4c(c3Oc3cc5c(cc3OC)CCN(C)[C@@H]5C2)OCO4)CCN1C | -6.46% (inactive) | -16% | -0.97%
35 | CCCCCCCCCCCCCC[N+](C)(C)C | 9.63% (inactive) | -25.3% | 11.1%
36 | O=c1[nH]c(=O)n([C@H]2C[C@H](O)[C@@H](CO)O2)cc1C(F)(F)F | -3.93% (inactive) | -10.1% | 6.77%
37 | CCCCC1C(=O)N(c2ccccc2)N(c2ccc(O)cc2)C1=O (stereo unspecified) | -2.38% (inactive) | -10% | 17.6%
38 | COc1c(C)c2c(c(O)c1C/C=C(\C)CCC(=O)OCCN1CCOCC1)C(=O)OC2 | 16% (inactive) | -7.13% | 8.28%
39 | COCc1c(C(C)C)nc(C(C)C)c(/C=C/[C@@H](O)C[C@@H](O)CC(=O)O)c1-c1ccc(F)cc1 | 8.38% (inactive) | -11.4% | 11.1%
40 | CN(C)c1ccc2nc3ccc(=[N+](C)C)cc-3sc2c1 | -76.3% (inactive) | -18.8% | 17.2%

Row | SMILES | inhibition (at 20 µM) | inhibition (inhibition, at 0.2 µM) | inhibition (inhibition, at 2 µM)
41 | COC(=O)Nc1nc2ccc(C(=O)c3cccs3)cc2[nH]1 | 33.9% (inactive) | -29.8% | 27.3%
42 | Cc1ccc(Nc2nccc(N(C)c3ccc4c(C)n(C)nc4c3)n2)cc1S(N)(=O)=O | 91.3% | -13.3% | 74.4%
43 | CCCSc1ccc2nc(NC(=O)OC)[nH]c2c1 | 10.2% (inactive) | -15.1% | 22.7%
44 | CC(C)C[C@H](NC(=O)[C@H](Cc1ccccc1)NC(=O)c1cnccn1)B(O)O | 3.25% (inactive) | -26.9% | 13.7%
45 | O=C(CCCCCCC(=O)Nc1ccccc1)NO | -5.57% (inactive) | -26.9% | 8.74%
46 | C[C@@]12C(=O)OC(=O)[C@]1(C)C1CCC2O1 | -4.71% (inactive) | -12.1% | 6.97%
47 | O=C(NOCC1CC1)c1ccc(F)c(F)c1Nc1ccc(I)cc1Cl | -17.5% (inactive) | -18.3% | 1.39%
48 | COc1cc(-c2ccc(=O)[nH]n2)ccc1OC(F)F | -7.69% (inactive) | -21.1% | 1.13%
49 | C[n+]1c2cc(N)ccc2cc2ccc(N)cc21 (tested in a mixture with another compound) |  | -37.7% | -20.8%
50 | CCCN(CCC)C(=O)C(CCC(=O)OCCCN1CCN(CCOC(=O)Cc2c(C)n(C(=O)c3ccc(Cl)cc3)c3ccc(OC)cc23)CC1)NC(=O)c1ccccc1 (stereo unspecified) | 9.63% (inactive) | -10.3% | 12.7%
51 | CCC1=C[C@@H]2CN(C1)Cc1c([nH]c3ccccc13)[C@@](C(=O)OC)(c1cc3c(cc1OC)N(C)[C@H]1[C@@](O)(C(=O)OC)[C@H](OC(C)=O)[C@]4(CC)C=CCN5CC[C@]31[C@@H]54)C2 | -1.29% (inactive) | -17.1% | 7.24%
52 | Cc1cc(O)c2ccccc2c1O | 37.3% (inactive) | -26.3% | 3.27%
53 | Cc1ccccc1C(=O)Nc1ccc(C(=O)N2CCCC(N(C)C)c3ccccc32)cc1 (stereo unspecified) | -14% (inactive) | -17.9% | 9.15%
54 | Cc1cc(C)c(/C=C2\C(=O)Nc3ccccc32)[nH]1 | 97.7% | 93.8% | 98.6%
55 | [O-][n+]1ccccc1SSc1cccc[n+]1[O-] | -9.22% (inactive) | -25.4% | 5.1%
56 | CC(C)(C)C(=O)OCOP(=O)(COCCn1cnc2c(N)ncnc21)OCOC(=O)C(C)(C)C | 6.16% (inactive) | -3.43% | 12.9%
57 | C=C(C)[C@H]1Cc2c(ccc3c2O[C@@H]2COc4cc(OC)c(OC)cc4[C@@H]2C3=O)O1 | 1.11% (inactive) | -12.6% | 7.73%
58 | COc1cc2nc(N3CCN(C(=O)c4ccco4)CC3)nc(N)c2cc1OC | 17.2% (inactive) | -0.58% | 8.33%
